Consider 23 compounds from patent US20250179017A1 (GUANGDONG NEWOPP BIOPHARMACEUTICALS CO., LTD., priority 2022, published 2025).

The target in this assay is T1, human EP2 (PTGER2) (Homo sapiens, UniProt P43116).
T1 construct: Cayman Chemical (Human EP2 Reporter Assay Kit)
The experiment in a line: EP2 antagonist assay (HEK-293 CNG membrane potential cAMP assay / 293T SEAP reporter assay, PGE2-stimulated). The settings on record: EP2 antagonist activity; concentration for 50% inhibition of signal compared to DMSO. The class given is cell-based. In a few lines:
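Two formats. In a CRE-SEAP reporter assay, reverse-transfected 293T cells received compound with PGE2 (13 nM final) for 6-8 h, then luminescence was read. In the ACTOne CNG format, HEK-293 cells were preincubated with compound for 15 min at RT, stimulated with 5 nM PGE2 for 30 min, and read by membrane-potential dye fluorescence. IC50 was taken versus DMSO.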
A general note: Cyclic AMP is a second messenger, typically raised through Gs and lowered through Gi signalling.

Broadly, the IC50 is the midpoint of a concentration-inhibition curve. The low end stands for greater potency, the high end for weaker potency.

T1 sequence (P43116 whole entry): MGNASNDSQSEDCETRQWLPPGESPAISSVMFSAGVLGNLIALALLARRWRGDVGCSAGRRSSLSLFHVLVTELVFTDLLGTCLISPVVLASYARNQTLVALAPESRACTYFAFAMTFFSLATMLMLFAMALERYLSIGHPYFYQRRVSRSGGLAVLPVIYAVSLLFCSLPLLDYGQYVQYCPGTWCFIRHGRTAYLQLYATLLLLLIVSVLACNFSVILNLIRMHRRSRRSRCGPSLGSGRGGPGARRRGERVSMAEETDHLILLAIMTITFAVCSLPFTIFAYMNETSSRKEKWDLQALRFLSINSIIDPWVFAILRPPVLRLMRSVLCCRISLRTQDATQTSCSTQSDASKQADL

`CS(=O)(=O)c1cccc(-c2cc(C(=O)NCc3ccc(C(=O)O)cc3)c3c(ccn3Cc3ccc(C(F)(F)F)cc3)c2)c1` [Example 84, 4-((5-(3-(methylsulfonyl)phenyl)-1-(4-(trifluoromethyl)benzyl)-1H-indole-7-carboxamido)methyl)benzoic acid] registered an IC50 of less than 100 nM.

In turn, `O=C(O)c1ccc(CNC(=O)c2cc(-c3ccccc3O)cc3ccn(Cc4ccc(C(F)(F)F)cc4)c23)cc1` [Example 86, 4-((5-(2-hydroxyphenyl)-1-(4-(trifluoromethyl)benzyl)-1H-indole-7-carboxamido)methyl)benzoic acid] gave an IC50 of less than 100 nM.

The compound `O=C(O)c1ccc(CNC(=O)c2cc(-c3cc(Cl)cc(Cl)c3)cc3ccn(Cc4ccc(C(F)(F)F)cc4)c23)cc1` [Example 88, 4-((5-(3,5-dichlorophenyl)-1-(4-(trifluoromethyl)benzyl)-1H-indole-7-carboxamido)methyl)benzoic acid] returned a half-maximal inhibitory concentration (IC50) of 100 to 1000 nM.

Regarding `O=C(O)c1ccc(CNC(=O)c2cc(-c3ccccc3C(F)(F)F)cc3ccn(Cc4ccc(C(F)(F)F)cc4)c23)cc1` [Example 89, 4-((1-(4-(trifluoromethyl)benzyl)-5-(2-(trifluoromethyl)phenyl)-1H-indole-7-carboxamido)methyl)benzoic acid], the IC50 is 100 to 1000 nM.

`O=C(O)c1ccc(CNC(=O)c2cc(-c3ccccc3Cl)cc3ccn(Cc4ccc(C(F)(F)F)cc4)c23)cc1` [Example 90, 4-((5-(2-chlorophenyl)-1-(4-(trifluoromethyl)benzyl)-1H-indole-7-carboxamido)methyl)benzoic acid]: the IC50 was less than 100 nM.

In the case of `O=C(O)c1ccc(CNC(=O)c2cc(-c3ccc(Cl)c(F)c3)cc3ccn(Cc4ccc(C(F)(F)F)cc4)c23)cc1` [Example 91, 4-((5-(4-chloro-3-fluorophenyl)-1-(4-(trifluoromethyl)benzyl)-1H-indole-7-carboxamido)methyl)benzoic], the IC50 is less than 100 nM.

Compound `Cc1ccccc1-c1cc(C(=O)NCc2ccc(C(=O)O)cc2)c2c(ccn2Cc2ccc(C(F)(F)F)cc2)c1` [Example 92, 4-((5-(o-tolyl)-1-(4-(trifluoromethyl)benzyl)-1H-indole-7-carboxamido)methyl)benzoic acid] showed an IC50 of less than 100 nM.

Compound `Nc1ccccc1-c1cc(C(=O)NCc2ccc(C(=O)O)cc2)c2c(ccn2Cc2ccc(C(F)(F)F)cc2)c1` [Example 93, 4-((5-(2-aminophenyl)-1-(4-(trifluoromethyl)benzyl)-1H-indole-7-carboxamido)methyl)benzoic acid] came in with an IC50 of 100 to 1000 nM.

For the compound `O=C(O)c1ccc(CNC(=O)c2cc(-c3ccc(F)c(Cl)c3)cc3ccn(Cc4ccc(C(F)(F)F)cc4)c23)cc1` [Example 94, 4-((5-(3-chloro-4-fluorophenyl)-1-(4-(trifluoromethyl)benzyl)-1H-indole-7-carboxamido)methyl)benzoic], the IC50 was less than 100 nM.

For `O=C(O)c1ccc(CNC(=O)c2cc(-c3cc(F)cc(Cl)c3)cc3ccn(Cc4ccc(C(F)(F)F)cc4)c23)cc1` [Example 95, 4-((5-(3-chloro-5-fluorophenyl)-1-(4-(trifluoromethyl)benzyl)-1H-indole-7-carboxamido)methyl)benzoic acid], the IC50 was less than 100 nM.

In the case of `N#Cc1cccc(-c2cc(C(=O)NCc3ccc(C(=O)O)cc3)c3c(cnn3Cc3ccc(C(F)(F)F)cc3)c2)c1` [Example 98, 4-((5-(3-cyanophenyl)-1-(4-(trifluoromethyl)benzyl)-1H-indazole-7-carboxamido)methyl)benzoic acid], the IC50 is less than 100 nM.

`O=C(O)c1ccc(CNC(=O)c2cc(-c3cc(F)cc(F)c3)cc3cnn(Cc4ccc(C(F)(F)F)cc4)c23)cc1` [Example 99, 4-((5-(3,5-difluorophenyl)-1-(4-(trifluoromethyl)benzyl)-1H-indazole-7-carboxamido)methyl)benzoic acid] came in with an IC50 of less than 100 nM.

For `O=C(O)c1ccc(CNC(=O)c2ccc(Nc3ccccc3)c3ccn(Cc4cccc(Cl)c4)c23)cc1` [Example 103, 4-((1-(3-chlorobenzyl)-4-(phenylamino)-1H-indole-7-carboxamido)methyl)benzoic acid], the IC50 lay within 100 to 1000 nM.

For the compound `O=C(O)c1ccc(CNC(=O)c2cc(-c3cccnc3)cc3ccn(Cc4cccc(Cl)c4)c23)cc1` [Example 104, 4-((1-(3-chlorobenzyl)-5-(pyridin-3-yl)-1H-indole-7-carboxamido)methyl)benzoic acid], the IC50 was less than 100 nM.

Regarding `O=C(O)c1ccc(CNC(=O)c2cc(-c3ccccc3)cc3ccn(Cc4cccc(Cl)c4)c23)cc1` [Example 105, 4-((1-(3-chlorobenzyl)-5-phenyl-1H-indole-7-carboxamido)methyl)benzoic acid], the IC50 was less than 100 nM.

Take `C[C@H](NC(=O)c1cc(-c2cccc(C#N)c2)cc2ccn(Cc3cccc(Cl)c3)c12)c1ccc(C(=O)O)cc1` [Example 108, (S)-4-(1-(1-(3-chlorobenzyl)-5-(3-cyanophenyl)-1H-indole-7-carboxamido)ethyl)benzoic acid]: the IC50 was less than 100 nM.

Compound `C[C@H](NC(=O)c1cc(-c2cccnc2)cc2ccn(Cc3cccc(Cl)c3)c12)c1ccc(C(=O)O)cc1` [Example 109, (S)-4-(1-(1-(3-chlorobenzyl)-5-(pyridin-3-yl)-1H-indole-7-carboxamido)ethyl)benzoic acid] came in with an IC50 of less than 100 nM.

As to `C[C@H](NC(=O)c1cc(-c2ccccc2)cc2ccn(Cc3cccc(Cl)c3)c12)c1ccc(C(=O)O)cc1` [Example 110, (S)-4-(1-(1-(3-chlorobenzyl)-5-phenyl-1H-indole-7-carboxamido)ethyl)benzoic acid], the concentration for half-maximal inhibition (IC50) was less than 100 nM.

Take `C[C@H](NC(=O)c1cc(-c2cc(F)cc(F)c2)cc2ccn(Cc3cccc(Cl)c3)c12)c1ccc(C(=O)O)cc1` [Example 111, (S)-4-(1-(1-(3-chlorobenzyl)-5-(3,5-difluorophenyl)-1H-indole-7-carboxamido)ethyl)benzoic acid]: the IC50 was less than 100 nM.

For the compound `CNC(=O)c1cccc(-c2cc(C(=O)NCc3ccc(C(=O)O)cc3)c3c(ccn3Cc3ccc(C(F)(F)F)cc3)c2)c1` [Example 116, 4-((5-(3-(methylcarbamoyl)phenyl)-1-(4-(trifluoromethyl)benzyl)-1H-indole-7-carboxamido)methyl)benzoic acid], the IC50 was in the range of 100 to 1000 nM.

`N#Cc1cccc(-c2cc(C(=O)NC34CC(CC(=O)O)(C3)C4)c3c(Sc4ccc(C(F)(F)F)cc4)c[nH]c3c2)c1` [Example 118, 2-(3-(6-(3-cyanophenyl)-3-((4-(trifluoromethyl)phenyl)thio)-1H-indole-4-carboxamido)bicyclo[1.1.1]pentan-1-yl)acetic acid] yielded an IC50 of 100 to 1000 nM.

As for `N#Cc1cccc(-c2cc(C(=O)NCC34CC(C(=O)O)(C3)C4)c3c(Sc4ccc(C(F)(F)F)cc4)c[nH]c3c2)c1` [Example 119, 3-((6-(3-cyanophenyl)-3-((4-(trifluoromethyl)phenyl)thio)-1H-indole-4-carboxamido)methyl)bicyclo[1.1.1]pentane-1-carboxylic acid], the IC50 is 100 to 1000 nM.

In the case of `Cn1cc(Sc2ccc(C(F)(F)F)cc2)c2c(C(=O)NCc3ccc(C(=O)O)cc3)cc(-c3cccc(C#N)c3)cc21` [Example 120, 4-((6-(3-cyanophenyl)-1-methyl-3-((4-(trifluoromethyl)phenyl)thio)-1H-indole-4-carboxamido)methyl)benzoic acid], the IC50 was in the range of 100 to 1000 nM.
